Positions of bridges follow the written chain, without caps; N, C: chain ends. Residues, ends and D or L forms follow the SMILES beside them.
Columns and labels:
B16F10 melanoma = experiment: Mouse tumorigenesis: subcutaneous B16F10 melanoma, intravenous treatment from day 0; type: in vivo
Experimental: FIG. 4 Recombinant ISM and ISM derived cRKD peptide inhibit B16F10 tumour growth in vivo. A. Tumour growth curve in mice. X-axis represents the days after 5×10^5 tumour cell inoculation. Groups consisted of control mice receiving no treatment, recombinant ISM, cRKD peptide and its control-cyclic RAA peptide, given in six doses of 250 μg/mouse through tail vein injection on days 0, 2, 4, 6, 8, and 10 (5 mice in each group, each mice with one tumour). **: p<0.01,*: p<0.05, n=5. B. Tumour weight at the end of the experiment (14 days after tumour cell inoculation). C. Recombinant ISM and cRKD peptide inhibits B16F10 tumour growth. […] Paraffin sections of tumors from mice groups treated by control, ISM, cRAA and cRKD peptides were probed for microvessel density, tumor cell proliferation and apoptosis through immunofluoresence staining using anti-CD31 (A), anti-PCNA (B) and TUNEL staining (C) respectively. Representative photos are shown. (D) Quantification of microvessel density. Microvessel density is the number of microvessels per microscopic field. (E) Quantification of cell proliferation in tumor sample. Cell proliferation is presented as the percentage of PCNA positive cells out of the total number of cells (DAPI positive cells) in the microscopic field. (F) Quantification of apoptosis in tumor. Apoptosis is quantified as the percentage of TUNEL positive cells out of the total number of cells (DAPI positive cells) in the microscopic field. Plots represent the mean of 3 fields per section, 3 sections per tumor and 2 tumors per group (±SEM). ** P≦0.01, * P≦0.05; Adult 8-week-old female C57BL/6J mice were used in this study. Animal care and experimentation was carried out under the institutional guidelines issued by the local institutional animal care and use committee (IACUC; protocol 066/12). 5×10^5 B16F10 cells in 0.1 ml PBS were injected subcutaneously into the dorsal left flank of the mouse. Twenty mice were assigned into 4 different groups consisted of control mice receiving no treatment, recombinant ISM, cyclic RKD peptide and its peptide control-cyclic RAA peptide, given in six doses of 250 μg through tail vein injection on days 0, 2, 4, 6, 8, and 10 (5 mice in each group, each mice with one tumor). Health status of the mice was monitored over two weeks and visible tumor size were measured daily by calipers after 8 days until the end point (day 14). Tumor volume was calculated using the following formula: 0.52×length×(width)^2 mm^3, where the largest dimension of the tumor is considered as the length and the width is the perpendicular dimension. On day 14, mice were sacrificed, and their dorsal flank was opened and photographed to exam the vascularization. Then tumors were excised and weighed followed by either fixing in 4% paraformaldehyde for sectioning or snap-freezing in liquid nitrogen for further analysis. Paraffin-embedded tissue sections of 5 μm were deparaffinized by heating at 60° C. for 7 minutes before deparaffinizing in histoclear followed by the rehydration in graded series of alcohol (100%, 90%, 80%, and 70% ethanol in ddH2O) and finally in PBS for 5 minutes. Antigen retrieval was done in a bench-top 2100-Retriever according to the protocol of the manufacturer (Electron Microscopy Sciences, Hatfield, Pa.). The sections were blocked with 3% bovine serum albumin (BSA) in a humidified chamber for 1 hour at room temperature followed by overnight incubation with the anti-CD31 (Santa Cruz Biotechnology, Santa Cruz, Calif.), anti-PCNA antibody (Santa Cruz Biotechnology), anti-GRP78 antibody (Santa Cruz Biotechnology), or anti-His tag antibody (Santa Cruz Biotechnology) at 4° C. The following day, unbound antibody was washed with 1×PBS containing 0.1% Tween-20 (1×PBST) and incubated with the corresponding Alexafluor 568 secondary antibodies (Life Technologies) for 1.5 hours at 37° C. Sections were rinsed again and incubated for 10 minutes with DAPI at 1 μg/mL to visualize the DNA in the cell nucleus. […]

endothelial cells (ECs) = experiment: Apoptosis assay (Cell Death ELISA) in cultured ECs; type: cell-based; conditions: cultured ECs in the presence of VEGF, 24 h
Experimental: ECs (2×10^4 cells per well) in 96-well plate were starved in 2% FBS basal CSC medium for 3 h. Cells were then incubated with peptides of various concentrations and 15 ng/ml VEGF for 24 h. Apoptosis was detected by measuring cytosolic oligonucleosome-bound DNA using a Cell Death ELISA kit purchased from Roche (USA). Plots represented the mean of 3 wells of apoptotic cells in 96 well plate (±SEM).

ECs = experiment: Cell attachment (EC adhesion) assay; type: cell-based; conditions: peptide coated on plastic surface
Experimental: 96-well plates were coated with 50 μl of 1 μM ISM at 4° C. overnight. Nonspecific binding sites were blocked with 1% BSA for 2 h at 37° C. ECs were harvested and incubated in CSC basal medium containing 4 μg/ml neutralizing antibodies or control IgG for 30 min. 2[…]104 cells were plated to each well and allowed to attach for 60 min at 37° C. Attached cells were fixed by 10% formalin and stained with 0.2% crystal violet. Absorbed crystal violet was extracted by 10% acetic acid and quantified by measuring the absorbance of eluted dye at 595 nm with a microplate reader.

GRP78 = GRP78 (Homo sapiens, UniProt P11021); experiment: ELISA solid phase-binding assay for binding affinity to GRP78; conditions: purified recombinant GRP78
Experimental: ELISA solid phase-binding assay was used to determine the dissociation constant between ISM or cyclic peptide and GRP78 as previously described with minor modification (Nishiuchi, Takagi et al. 2006). 96-well plates were coated with 50 μl of 10 nM cyclic peptide at 4° C. overnight. Nonspecific binding sites were blocked with 1% BSA for 2 h at room temperature. Increasing concentrations of GRP78 were incubated with immobilized cyclic peptide. After washing, the amount of bound GRP78 was quantified by ELISA. The value for Kd was calculated by GraphPad Prism software.

Kd (GRP78): 9.6 nM
Structure (SMILES): N=C(N)NCCC[C@@H]1NC(=O)[C@@H](N)CSSC[C@@H](C(=O)O)NC(=O)[C@H](CC(=O)O)NC(=O)[C@H](CCCCN)NC1=O [cRKD, Cyclic CRKDC peptide] (H-CRKDC-OH; disulfide 1-5; N-terminus and C-terminus assumed)
tumor growth (B16F10 melanoma; 250 μg/mouse intravenous every 2 days, days 0-10, subcutaneous B16F10): significantly suppressed tumor growth
vascularization (blood vessels supplying the tumor) (B16F10 melanoma; 250 μg/mouse intravenous, day 14): obviously reduced
tumor angiogenesis, tumor cell proliferation and tumor cell apoptosis (B16F10 melanoma; immunofluorescence of tumor sections): suppress tumor angiogenesis, tumor cell proliferation and induce tumor cell apoptosis
suppression of subcutaneous mouse melanoma growth (B16F10 melanoma; intravenous injection): 75%
increase of apoptosis in the tumor tissue (TUNEL) (B16F10 melanoma; quantitation of tumor sections): more than 3 fold
suppression of tumor angiogenesis (tumor vessel density) (B16F10 melanoma; quantitation of tumor sections): more than 3 fold
suppression of tumor cell proliferation (PCNA) (B16F10 melanoma; quantitation of tumor sections): more than 2 fold
apoptosis of tumor cells and tumor ECs (CD31/TUNEL double staining) (B16F10 melanoma; tumor sections, compared to controls): both tumor cells as well as tumor ECs became apoptotic
tumor vessel density (anti-CD31 immunofluorescence) (B16F10 melanoma; tumor tissue sections): obvious reduction of tumor vessel density
induction of EC apoptosis (pro-apoptotic activity) (endothelial cells (ECs)): potently induced apoptosis
induction of EC apoptosis (pro-apoptotic activity) (endothelial cells (ECs); listed as RKD): equally potent comparing to “RKLYD”
EC attachment and adhesion (ECs): mediated EC attachment and adhesion

Reference: patent US20160002297A1, “THERAPEUTIC AGENTS” (NATIONAL UNIVERSITY OF SINGAPORE, priority 2013, published 2016)
